The subject of series [1] is human ES cells. The series can be described thus: Cell adhesion assay, 1 hour after plating on coated plates. The format is cell-based. On the procedure: (§1) The assay was performed as described (Extracellular Matrix Protocols, 2000). Briefly, 96-well plates were coated by extracellular matrix proteins as described above and blocked by O3 medium containing bovine serum albumin. The ES cells were plated at a cell density of 600 cell/mm^2 upon extracellular matrix-coated plates and were left to adhere for either 1 hour or 1 day at the cell incubator. Non-adherent cells were washed away, and adherent cells were fixed for 20 min by 5% glutaraldehyde, stained by 0.1% Crystal Violet.
Briefly, 96-well plates were coated by extracellular matrix proteins as described above and blocked by O3 medium containing bovine serum albumin. The ES cells were plated at cell density of 50,000 cells/cm^2 onto extracellular matrix-coated plates and left to adhere for 1 hour in a cell incubator. After that the plates were washed 3 times with the medium to remove the non-adherent cells, and then the adherent cells were fixed for 20 minutes by 5% glutaraldehyde, stained by 0.1% Crystal Violet. (Kebo Lab, Spanga, Sweden, http://www.kebolab.se). After one hour and 3 washes with water, Crystal Violet was extracted with 10% acetic acid and quantified by measuring optical density at 570 nm. All the experiments were performed in quadruplicate.

Series [2] relates to human ES cells. The series can be described thus: Cell survival assay, 24 hours (1 day) after plating from single cell suspension. The format is cell-based. Particulars: for adhesion / survival without additives compared with ROCK inhibitor treated cells: 1 day (24 hours) after plating; for survival / attachment of dissociated hES cells 24 hours (one day) after plating: single cell suspension, O3 medium. The method, then:
as §1
The survival assay was performed as described for the cell adhesion assay above, except that the cells were left in the cell incubator for 24 hours. For inhibition of survival assay, the cells were kept in a medium with function blocking antibodies at the concentrations recommended by the manufacturer or pathway inhibitors at concentrations indicated in the text for 30 minutes, and then plated on the coated dishes. All the experiments were performed in quadruplicate.
Pluripotent hES cells express α1, α5, β1, β2 and γ1 laminin chains. To compare the adhesion and clonal survival of hES cells plated from single cell suspension to different coating substrata, hES cells growing as monolayers on LN-511 or as clusters on a feeder layer were trypsinized into single cell suspension in O3 medium and plated on cell culture dishes coated with Matrigel, LN-111, LN-511, LN-521 or a mixture of LN-511 and LN-521, in the absence or presence of a ROCK inhibitor (Y-27632) and analyzed after 24 hours.

The subject of series [3] is human ES cells. Put plainly: Real-time quantitative RT-PCR / marker expression of pluripotency and differentiation markers. The class given is cell-based. The method, then:
Total RNA was isolated and cDNA was synthesized as described in Rodin et al., Nature Biotechnol., vol. 28, pp. 611-615 (2010). Real-time quantitative RT-PCR Taqman assays were performed using the Applied Biosystems 7300 Real-Time PCR System. All reactions were done in quadruplicate with predeveloped gene expression assay mix (Applied Biosystems) containing primers and a probe for the mRNA of interest. Additional reactions for each experiment included predeveloped gene expression assay mix for GAPDH, used to normalize the RNA input. All data were analyzed with 7300 System SDS Software version 1.4.
Total RNA was isolated using Absolutely RNA Microprep Kit (Stratagene, La Jolla Calif., www.stratagene.com) according to the manufacturer's instructions. cDNA was synthesized using 0.2 μg of total RNA in 20 μl reaction mixture, containing oligo(dT)12-18 primers and Superscript II reverse transcriptase (GIBCO Invitrogen Corporation), according to the manufacturer's instructions. Real-time quantitative RT-PCR Taqman assays were performed using the Applied Biosystems 7300 Real-Time PCR System (Applied Biosystems, Foster City, Calif.). All reactions were done in quadruplicates with the use of a pre-developed gene expression assay mix (Applied Biosystems) containing primers and a probe for the mRNA of interest. […] All data was analyzed with 7300 System SDS Software v 1.4.

The subject of the next series is hES cell lines. The series can be described thus: Karyotyping. The format is cell-based, human. Particulars: HS181 12 and H1 10 passages in O3; H1 7 passages in TeSR2. On the procedure:
Karyotyping of the cell lines was carried out using standard Q-banding techniques. Samples of cells were treated with colcemid KaryoMAX (0.1 μg/ml; Gibco Invitrogen Corporation) for up to 4 hours, followed by dissociation with Trypsin/EDTA solution (Gibco Invitrogen Corporation). The cells were pelleted via centrifugation and re-suspended in pre-warmed 0.0375M KCl hypotonic solution and incubated for 10 minutes. Following centrifugation, the cells were resuspended in fixative (3:1 methanol:acetic acid). Metaphase spreads were prepared on glass microscope slides and G-banded by brief exposure to trypsin and stained with 4:1 Gurr's/Leishmann's stain (Sigma-Aldrich Co.). A minimum of 10 metaphase spreads were analyzed and additional 20 were counted.

The subject of another series is SCID mouse. The series can be described thus: Teratoma formation in SCID mice. The format is in vivo. To be noted: HS181 13, H1 12 passages in O3; H1 7 passages in TeSR2. The method, then: Teratoma formation experiments were performed by implantation of approximately 10^6 cells beneath the testicular capsule of a young (7-week-old) severe combined immunodeficiency (SCID) mouse. Three animals per each cell line were used. Teratoma growth was observed by weekly palpation, and the mice were sacrificed eight weeks after the implantation. The teratomas were fixed, and sections were stained with hematoxylin and eosin (HE) or with hematoxylin, eosin and PAS (HE-PAS). […] All animal experiments were performed at the infection-free animal facility of the Karolinska University Hospital in accordance with ethical committee approval.

Another series relates to hES cells. The series can be described thus: In vivo imaging and migration assay. The class given is cell-based, human. The method, then: 24-well plates were coated by extracellular matrix proteins and blocked by O3 medium containing bovine serum albumin. The ES cells were plated at cell density of 30,000-40,000 cells/cm^2 onto extracellular matrix-coated plates and left to adhere for half an hour in a cell incubator. After that, the plate was transferred into high content imaging system Operetta (PerkinElmer) equipped with environmental control unit, which allowed to keep 37° C., 5% CO2. For two movies that were made, the brightfield images were taken once in 15 minutes during 24 hours after plating using Harmony software (PerkinElmer), exported, and analyzed using ImageJ software (NIH, the US). For migration assay the images were taken every seven minutes during 18 hours after plating. Images acquired between the fifth and seventh hours after plating were analyzed using MTrackJ plug-in (University Medical Center, Rotterdam, The Netherlands). 100 attached cells on each coating were traced and mean distances from the current to the previous point of the track were calculated. Error bars show standard error of the mean s.e.m. (n=100).

The test system of series [4] is human ES cells. The series can be described thus: Cell survival assay, 24 hours (1 day) after plating from single cell suspension. Particulars: 10 μM Y-27632, 40,000 cells per 1 cm^2, 24 hours. The class given is cell-based.

Turning to “LN-521: protein formed by joining laminin α5, β2 and γ1 chains; human recombinant, produced in HEK293 cells”, in the series with human ES cells [1] (O3 medium without any additives, without Y-27632, FIG. 6), the “adhesion of human ES cells after 1 hour” value is on record as “roughly the same”. Besides, the “spreading of the cells after one hour compared with Matrigel or LN-111” value with human ES cells [1] (dissociated hES cells, not shown) is “clearly better”. Moreover, the “adhesion / survival without additives compared with ROCK inhibitor treated cells” value with human ES cells [2] is “similar”; in the series with human ES cells [2] (listed as LN-532), “no ROCK inhibitor is necessary”. Besides, the “survival of cells compared with LN-511” value with human ES cells [2] (24 hours, no ROCK inhibitor) is recorded as “significantly higher”. The “cell shape 24 hours after plating on LN-521” value in the series on human ES cells [2] (absence or presence of ROCK inhibitor) is recorded as “round”. Further, the “survival relative to Matrigel” value in the series on human ES cells [2] (exogenous bFGF removed from the O3 medium) turned out to be 20 times. The “survival 24 hours after plating” value in the series on human ES cells [2] (medium lacking all growth factors of the TeSR1 formulation (bFGF, LiCl, GABA, pipecolic acid, TGFβ)) is listed as “survived”. The “survival after 24 hours relative to LN-511” value in the series with human ES cells [2] (no ROCK inhibitor) is recorded as “three”. The “survival / attachment of dissociated hES cells 24 hours (one day) after plating” value in the series with human ES cells [2] (no ROCK inhibitor) was “did so as single cells”; with human ES cells [2] (no ROCK inhibitor, listed as human r-laminin-521), “survived”; with human ES cells [2] (no ROCK inhibitor, listed as laminin-521), “survived and started to proliferate”. In addition, in the series with human ES cells [3] (FIG. 11), the “number of mRNA transcripts of pluripotency markers Oct4 and Nanog compared with Matrigel” value is reported as “higher numbers of transcripts”. Further, in the series on human ES cells [3] (similar to cells on Matrigel passed as small clumps), the “expression levels of pluripotency markers Oct4, Nanog and SSEA4” value is recorded as “stable expression levels”. In addition, the karyotype entry with hES cell lines is given as “normal”. Also, the “tissues in teratomas formed in SCID mice” value in the series on SCID mouse is “all three germ lineages”. In addition, in the series with hES cells (24 hours imaging), the “cell migration compared with Matrigel (imaging)” value is on record as “much faster”. Besides, the “motility of hES cells compared with other coatings” value with hES cells (between fifth and seventh hours after plating, FIG. 14) is reported as “higher”. Also, the “survival of Y-27632 treated cells compared with Matrigel” value in the series with human ES cells [4] is recorded as “survived better”.

These data come from patent publication US9828630B2, “Methods of enhancing genetic diagnosis” (BioLamina AB, priority 2011, dated 2017).
